Reference: ChEMBL document CHEMBL3751783, “Straightforward and effective synthesis of γ-aminobutyric acid transporter subtype 2-selective acyl-substituted azaspiro[4.5]decanes” (Bioorg Med Chem Lett, 2016)

Key:
Assay type in all cases: cell-based
[1] = target: Sodium- and chloride-dependent GABA transporter 1 (Mus musculus, UniProt P31648); experiment: Inhibition of mouse GAT1 mediated [3]GABA uptake expressed in HEK293 cells after 3 mins by scintillation counting
[2] = target: T1, GABA transporter 2 (Mus musculus, UniProt P31651); experiment: Inhibition of mouse BGT1 mediated [3]GABA uptake expressed in HEK293 cells after 3 mins by scintillation counting
T1 sequence (P31651 whole entry): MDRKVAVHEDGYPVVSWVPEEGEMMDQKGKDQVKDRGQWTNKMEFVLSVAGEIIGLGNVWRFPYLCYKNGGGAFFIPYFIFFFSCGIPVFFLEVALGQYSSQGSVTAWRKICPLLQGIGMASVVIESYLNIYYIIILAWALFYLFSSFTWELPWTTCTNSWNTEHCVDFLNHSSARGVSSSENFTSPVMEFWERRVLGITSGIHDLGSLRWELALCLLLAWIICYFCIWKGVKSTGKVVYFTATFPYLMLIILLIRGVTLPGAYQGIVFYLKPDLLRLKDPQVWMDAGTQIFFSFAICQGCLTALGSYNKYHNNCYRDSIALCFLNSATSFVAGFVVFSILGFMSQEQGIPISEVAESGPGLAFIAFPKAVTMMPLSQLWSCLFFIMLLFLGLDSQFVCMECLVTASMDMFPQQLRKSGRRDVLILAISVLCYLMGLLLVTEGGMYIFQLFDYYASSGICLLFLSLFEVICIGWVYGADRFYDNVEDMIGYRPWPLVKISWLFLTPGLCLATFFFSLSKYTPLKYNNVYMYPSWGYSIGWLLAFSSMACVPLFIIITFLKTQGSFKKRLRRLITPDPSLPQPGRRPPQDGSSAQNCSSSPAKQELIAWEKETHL

[3] = target: T2, GABA transporter 3 (Mus musculus, UniProt P31649); experiment: Inhibition of mouse GAT2 mediated [3]GABA uptake expressed in HEK293 cells after 3 mins by scintillation counting
T2 sequence (P31649 whole entry): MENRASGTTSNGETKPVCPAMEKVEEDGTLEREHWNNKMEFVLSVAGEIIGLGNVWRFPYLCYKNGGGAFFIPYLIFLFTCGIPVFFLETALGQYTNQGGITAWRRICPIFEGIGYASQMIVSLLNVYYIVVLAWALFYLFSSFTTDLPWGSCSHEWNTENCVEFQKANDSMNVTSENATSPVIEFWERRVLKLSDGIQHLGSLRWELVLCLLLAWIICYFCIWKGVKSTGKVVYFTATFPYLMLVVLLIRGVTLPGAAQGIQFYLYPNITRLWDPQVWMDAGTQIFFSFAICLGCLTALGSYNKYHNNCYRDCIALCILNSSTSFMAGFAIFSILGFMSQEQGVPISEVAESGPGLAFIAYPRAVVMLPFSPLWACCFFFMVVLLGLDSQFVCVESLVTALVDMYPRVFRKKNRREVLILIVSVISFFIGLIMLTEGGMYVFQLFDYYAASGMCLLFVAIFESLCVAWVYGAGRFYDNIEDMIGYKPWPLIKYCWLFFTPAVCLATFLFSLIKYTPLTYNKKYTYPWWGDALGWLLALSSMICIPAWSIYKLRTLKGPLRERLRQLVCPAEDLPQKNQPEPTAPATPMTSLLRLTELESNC

SMILES | IC50 [1] | IC50 [2] | IC50 [3]
O=C(CCN1CCCCC1)N1C(=O)CCC12CCCCC2 | > 1 mM | > 1 mM | > 1 mM
O=C(CCN1CCNCC1)N1CCCC12CCCCC2 | > 1 mM | > 1 mM | > 1 mM
CCN(CC)CCC(=O)N1CCCC12CCCCC2 | > 1 mM | > 1 mM | > 1 mM
O=C1C=CC2(CCCC23OCCO3)N1C(=O)CCN1CCOCC1 (stereo not given) | > 1 mM | > 1 mM | > 1 mM
O=C(CBr)N1C(=O)CCC12CCCCC2=O (stereo not given) | > 1 mM | > 1 mM | > 1 mM
O=C(CCN1CCCC1)N1C(=O)CCC12CCCCC2 | > 1 mM | > 1 mM | > 1 mM
COC(=O)C1=CCCN(CCC(=O)N2CCCC23CCCCC3)C1 | 2.05 mM | 2.3 mM | 3.23 mM
C1CCC2(CC1)CCCN2 | > 5 mM | > 5 mM | > 5 mM
C=CCN1C(=O)CCC12CCCC21OCCO1 (stereo not given) | > 1 mM | > 1 mM | > 1 mM
C=CC(=O)N1C(=O)C=CC12CCCC21OCCO1 (stereo not given) | > 1 mM | > 1 mM | > 1 mM
O=C1CCC2(CCCCC2=O)N1 (stereo not given) | > 1 mM | > 1 mM | > 1 mM
CCOC(=O)C1CCCN(CCC(=O)N2CCCC23CCCCC3)C1 (stereo not given) | > 5 mM | > 5 mM | 2.33 mM
O=C(CBr)N1C(=O)CCC12CCCCC2 | 0.371 mM | 0.103 mM | > 1 mM
CCOC(=O)C1CCCN(CCC(=O)N2C(=O)C=CC23CCCC32OCCO2)C1 (stereo not given) | > 1 mM | > 1 mM | > 1 mM
C=CC(=O)N1C(=O)CCC12CCCCC2=O (stereo not given) | > 1 mM | > 1 mM | > 1 mM
CCN(CC)CCC(=O)N1C(=O)CCC12CCCCC2 | > 1 mM | > 1 mM | > 1 mM
C=CC(=O)N1CCCC12CCCCC2 | > 5 mM | > 5 mM | 3.02 mM

SMILES | IC50 [1] | IC50 [2] | IC50 [3]
O=C(CCN1CCCC1)N1CCCC12CCCCC2 | > 5 mM | > 5 mM | > 5 mM
[N-]=[N+]=NCC(=O)N1C(=O)CCC12CCCCC2 | > 1 mM | > 1 mM | > 1 mM
CCOC(=O)C1CCCN(CCC(=O)N2C(=O)CCC23CCCCC3)C1 (stereo not given) | > 1 mM | 0.164 mM | > 1 mM
O=C(CCl)N1C(=O)CCC12CCCCC2 | > 1 mM | > 1 mM | > 1 mM
O=C1CCC2(CCCCC2)N1 | > 5 mM | > 5 mM | > 5 mM
O=C(CBr)N1CCCC12CCCCC2 | 0.233 mM | > 5 mM | > 5 mM
O=C(CCN1CCCCC1)N1CCCC12CCCCC2 | > 5 mM | > 5 mM | > 5 mM
O=C1C=CC2(CCCC23OCCO3)N1C(=O)CCN1CCNCC1 (stereo not given) | > 1 mM | > 1 mM | > 1 mM
O=C1CCC2(CCCC23OCCO3)N1 (stereo not given) | > 1 mM | > 1 mM | > 1 mM
O=C(O)C1=CCCNC1 [GUVACINE] | 0.0209 mM | > 1 mM | 0.0724 mM
O=C(CI)N1C(=O)CCC12CCCCC2 | > 1 mM | > 1 mM | > 1 mM
O=C(CCN1CCOCC1)N1CCCC12CCCCC2 | > 5 mM | > 5 mM | > 5 mM
COc1ccc(C(OCCN2CCC[C@H](C(=O)O)C2)(c2ccc(OC)cc2)c2ccc(OC)cc2)cc1 | – | > 1 mM | –
O=C(CCN1CCNCC1)N1C(=O)CCC12CCCCC2 | > 1 mM | > 1 mM | > 1 mM
O=C(O)C1=CCCN(CCON=C(c2ccccc2)c2ccccc2)C1 | 0.00018 mM | > 1 mM | > 1 mM
O=C(CCN1CCOCC1)N1C(=O)CCC12CCCCC2 | > 1 mM | > 1 mM | > 1 mM
C=CC(=O)N1C(=O)CCC12CCCCC2 | 0.371 mM | 0.103 mM | > 1 mM
